This is an account of results in US11518764B2, “Substituted heteroaryls as inhibitors of the BCL6 BTB domain protein-protein interaction” (Ontario Institute for Cancer Research (OICR), priority 2018, dated 2022).

Test [1] addresses BCL6 BTB domain (Homo sapiens (Human), UniProt P41182). In words: Surface plasmon resonance (SPR) assay. The format is binding. The following applies: BCL6 BTB domain captured on SA chip, single cycle kinetics. Background: Surface plasmon resonance follows binding to a sensor surface in real time, without labels.
In test [2] the test system is Karpas422 cells. In words: Tumor cell growth inhibition assay. Type of test: cell-based. Summed up:
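Karpas422 cells (2,000/well) in Alpha-MEM with 10% FBS dosed across 10 concentrations (top 5 uM) and grown six days at 37° C., 5% CO2. Viability read as ATPlite luminescence.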

The subject of test [3] is BCL6 reporter construct (3xBCL6-TK-Luc) in SuDHL4 cells. As to the kind of experiment: Cell-based luciferase assay. Put shortly:
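SuDHL4 cells stably carrying a 3×BCL6-site TK-promoter firefly luciferase reporter, seeded at 15,000 cells/well, were dosed over a 10-point range (top 10 uM) and grown two days at 37 °C, 5% CO2. Luminescence then read after adding neolite reagent at room temperature.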

The mark [4] stands for this setting: Homo sapiens, KARPAS-422, 144 h, read-out: Tumor Growth Inhibition in Karpas-422 (IC50, uM), Karpas422 cells, six days, ATPlite.
Setting [5] is: Homo sapiens, SU-DHL-4, 48 h, read-out: Luciferase-Assay EC50, uM), SuDHL4-3xBCL6-TK-Luc cells, two days, high dose 10 uM.
The mark [6] stands for this setting: read-out: Tumor Growth Inhibition in Karpas-422 (IC50), Karpas422 cells, six days, ATPlite.
[7] abbreviates: read-out: Luciferase-Assay EC50, SuDHL4-3xBCL6-TK-Luc cells, two days, high dose 10 uM.

Where two headings read alike, the source gives them in different places.

For the compound `Cn1cnc2c(c(-c3cc(Cl)c(O)c(C(N)=O)c3)cn2CC(=O)Nc2cc3c(cc2Cl)OCCN3CCN2CCOCC2)c1=O` [Compound I-213], the Kd (as a rule, the equilibrium constant for the complex coming apart) in test [1] was 18.6 nM. The IC50 (usually the concentration that gives 50% inhibition) in test [2] (setting [4]) is 0.878 µM. The EC50 (as a rule, the concentration at which the effect is half-maximal) in test [3] (setting [5]) stood at 0.842 µM.
The compound `Cn1cnc2c(c(-c3cc(Cl)c(O)c(C(N)=O)c3)cn2CC(=O)Nc2cc3c(cc2Cl)OCC(=O)N3CCN2CCOCC2)c1=O` [Compound I-214] displayed a Kd in test [1] of 31.2 nM. The IC50 in test [2] (setting [4]) was 0.855 µM. The EC50 in test [3] (setting [5]) is 1.35 µM.
For `CN(C)CC1CN(c2cc(NC(=O)Cn3cc(-c4cc(Cl)c(O)c(C(N)=O)c4)c4c(=O)n(C)cnc43)c(Cl)cn2)CCO1` (stereo not drawn) [Compound I-215], in that order: 9.81 nM, 0.662 µM and 0.806 µM.
For `C[C@H]1COCCN1c1cc(NC(=O)Cn2cc(-c3cc(Cl)c(O)c(C(N)=O)c3)c3c(=O)n(C)c(C(F)(F)F)nc32)c(Cl)cn1` [Compound I-216], in that order: 76.4 nM, 0.831 µM and 0.97 µM.
For `Cn1cnc2c(c(-c3cc(F)c(O)c(C(N)=O)c3)cn2CC(=O)Nc2cc(N3CCOCC3)ncc2F)c1=O` [Compound I-217], in that order: 26.6 nM, 0.382 µM and 0.727 µM.
For the compound `C[C@@H]1CN(c2cc(NC(=O)Cn3cc(-c4cc(F)c(O)c(C(N)=O)c4)c4c(=O)n(C)cnc43)c(Cl)cn2)C[C@H](C)N1` [Compound I-218], in test [1], the Kd was determined as 16.4 nM. Further, the IC50 in test [2] (setting [4]) worked out at 0.563 µM. Besides, the 50% effective concentration (EC50) in test [3] (setting [5]) turned out to be 0.975 µM.
In test [1], `Cn1cnc2c(c(-c3cc(F)c(O)c(C(N)=O)c3)cn2CC(=O)Nc2cc(N3CCOCC3)c(F)cc2Cl)c1=O` [Compound I-219] yielded a Kd of 70.9 nM. Further, in test [2] (setting [4]), the half-inhibitory concentration (IC50) is 0.216 µM. Besides, in test [3] (setting [5]), the EC50 came out at 0.535 µM.
`CN1C(C)(C)CN(c2cc(NC(=O)Cn3cc(-c4cc(F)c(O)c(C(N)=O)c4)c4c(=O)n(C)cnc43)c(Cl)cn2)CC1(C)C` [Compound I-221]: binding in test [1] was put at a Kd of 14.1 nM. Moreover, the IC50 in test [2] (setting [4]) was determined as 0.11 µM. Besides, the EC50 in test [3] (setting [5]) turned out to be 0.14 µM.
For `Cn1cnc2c(c(-c3cc(C(N)=O)c(O)cc3F)cn2CC(=O)Nc2cc(N3CCOCC3)ncc2F)c1=O` [Compound I-222], in that order: 228 nM, 0.371 µM and 1.33 µM.
For `Cn1cnc2c(c(-c3cc(C(N)=O)c(O)c(F)c3F)cn2CC(=O)Nc2cc(N3CC4CCOC4C3)ncc2Cl)c1=O` (stereo not drawn) [Compound I-224], in that order: 22.4 nM, 0.651 µM and 2.02 µM.
For `C[C@@H]1CN(c2cc(NC(=O)Cn3cc(-c4cc(C(N)=O)c(O)c(F)c4F)c4c(=O)n(C)cnc43)c(Cl)cn2)C[C@H](C)N1` [Compound I-225], in that order: 115 nM, 4.34 µM and 20.5 µM.
The compound `Cc1nc2cc(Cl)c(NC(=O)Cn3cc(-c4cc(C(N)=O)c(O)c(F)c4F)c4c(=O)n(C)cnc43)cc2o1` [Compound I-226] returned a Kd in test [1] of 468 nM. Besides, the IC50 in test [2] (setting [4]) is 1.89 µM. In addition, in test [3] (setting [5]), the EC50 came to 5.12 µM.
For `Cn1cnc2c(c(-c3cc(C(N)=O)c(O)c(F)c3F)cn2CC(=O)Nc2cc(N3CCOCC3)c(F)cc2Cl)c1=O` [Compound I-227], in that order: 420 nM, 2.16 µM and 2.5 µM.
For `C[C@@H]1CN(C)C[C@H](C)N1c1cc(NC(=O)Cn2cc(-c3cc(C(N)=O)c(O)c(F)c3F)c3c(=O)n(C)cnc32)c(Cl)c(F)n1` [Compound I-229], in that order: 16.3 nM, 0.0784 µM and 0.102 µM.
For `Cc1nc2c(c(-c3cc(C(N)=O)c(O)c4c3OCO4)cn2CC(=O)Nc2cc(N3CCNC[C@@H]3C)nc(F)c2Cl)c(=O)n1C` [Compound I-230], in that order: 2.32 nM, 0.0157 µM and 0.0625 µM.
Turning to `CN1CCN(c2cc(NC(=O)Cn3cc(-c4cc(C(N)=O)c(O)c(F)c4F)c4c(=O)n(C)cnc43)c(Cl)cn2)CC1` [Compound I-231], in test [1], the Kd came to 89.9 nM. The IC50 in test [2] (setting [4]) was 1.18 µM. For the same compound, in test [3] (setting [5]), the concentration for a half-maximal effect (EC50) came out at 1.47 µM.
`Cc1nc2c(c(-c3cc(Cl)c(O)c(C(N)=O)c3)cn2CC(=O)Nc2cc(N3CC(C)(C)N(C)C(C)(C)C3)ncc2Cl)c(=O)n1C` [Compound I-232] returned a Kd in test [1] of 11.8 nM. In test [2] (setting [4]), the IC50 came out at 0.222 µM. Further, the EC50 in test [3] (setting [5]) came to 0.267 µM.
For `C[C@H]1COCCN1c1cc(NC(=O)Cn2cc(-c3cc(F)c(O)c(C(N)=O)c3)c3c(=O)n(C)c(C(F)(F)F)nc32)c(Cl)cn1` [Compound I-234], in that order: 48.8 nM, 0.255 µM and 0.441 µM.
For `C[C@H]1COCCN1c1cc(NC(=O)Cn2cc(-c3cc(Cl)c(O)c(C(N)=O)c3)c3c(=O)n(C)cnc32)c(Cl)c(F)n1` [Compound I-235], in that order: 14 nM, 0.138 µM and 0.139 µM.
For `Cn1cnc2c(c(-c3cc(Cl)c(O)c(C(N)=O)c3)cn2CC(=O)Nc2cc(N3CCN4C(=O)CCC4C3)ncc2Cl)c1=O` (stereo not drawn) [Compound I-236], in that order: 16.6 nM, 0.385 µM and 0.739 µM.
As to `Cn1cnc2c(c(-c3cc(Cl)c(O)c(C(N)=O)c3)cn2CC(=O)Nc2cc(N3CCN4C(=O)OCC4C3)ncc2Cl)c1=O` (stereo not drawn) [Compound I-237], binding in test [1] was put at a Kd of 17.6 nM. In test [2] (setting [4]), the IC50 came to 1.25 µM. Besides, the EC50 in test [3] (setting [5]) came out at 1.04 µM.
In test [1], `CN1CC2CN(c3cc(NC(=O)Cn4cc(-c5cc(Cl)c(O)c(C(N)=O)c5)c5c(=O)n(C)cnc54)c(Cl)cn3)CCN2C1=O` (stereo not drawn) [Compound I-238] showed a Kd of 12.1 nM. In test [2] (setting [4]), the IC50 turned out to be 0.291 µM. Further, the half-maximal effective concentration (EC50) in test [3] (setting [5]) came to 0.588 µM.
For `C[C@H]1COCCN1c1cc(NC(=O)Cn2cc(-c3cc(Cl)c(O)c(C(N)=O)c3)c3c(=O)n(C)cnc32)c(F)cn1` [Compound I-241], in that order: 19.5 nM, 0.281 µM and 0.483 µM.
For `NC(=O)c1cc(-c2cn(CC(=O)Nc3cc(N4CC5CCC(C4)O5)ncc3Cl)c3nc[nH]c(=O)c23)cc(Cl)c1O` [Compound I-242], in that order: 5.01 nM, 0.312 µM and 0.483 µM.
For `Cc1nc2c(c(-c3cc(F)c(O)c(C(N)=O)c3)cn2CC(=O)Nc2cc(N3CC(C)(C)NC(C)(C)C3)ncc2Cl)c(=O)n1C` [Compound I-243], in that order: 12.4 nM, 0.134 µM and 0.19 µM.
`Cn1cnc2c(c(-c3cc(Cl)c(O)c(C(N)=O)c3)cn2CC(=O)Nc2cc(N3CCOC4CC43)ncc2Cl)c1=O` (stereo not drawn) [Compound I-244] came in with a Kd in test [1] of 8.46 nM. Further, the IC50 in test [2] (setting [4]) stood at 0.169 µM. The concentration giving a half-maximal response (EC50) in test [3] (setting [5]) amounted to 0.279 µM.
`Cn1cnc2c(c(-c3cc(Cl)c(O)c(C(N)=O)c3)cn2CC(=O)Nc2cc(N3CCOCC34CCC4)ncc2Cl)c1=O` [Compound I-245] registered a Kd in test [1] of 20.4 nM. The IC50 in test [2] (setting [4]) amounted to 0.182 µM. Besides, the concentration for a half-maximal effect (EC50) in test [3] (setting [5]) is 0.245 µM.
For `Cn1cnc2c(c(-c3cc(Cl)c(O)c(C(N)=O)c3)cn2CC(=O)NC2CCCCC2F)c1=O` (stereo not drawn) [Compound I-246], in that order: 1320 nM, 10 µM and 10 µM.
Take `C[C@H]1COCCN1c1cc(NC(=O)Cn2cc(-c3cc(Cl)c(O)c(C(N)=O)c3)c3c(=O)n(C)c(-c4ccccc4)nc32)c(Cl)cn1` [Compound I-248]: the Kd in test [1] worked out at 326 nM. Further, the IC50 in test [2] (setting [4]) is 0.29 µM. Moreover, the EC50 in test [3] (setting [5]) stood at 11.9 µM.
For `Cc1nc2c(c(-c3cc(C(N)=O)c(O)c(F)c3F)cn2CC(=O)Nc2cc(N3CCOC[C@@H]3C)ncc2Cl)c(=O)n1C` [Compound I-249], in that order: 77.3 nM, 0.736 µM and 0.689 µM.
For `Cc1nc2c(c(-c3cc(F)c(O)c(C(N)=O)c3)cn2CC(=O)Nc2cc(N3CC(C)(C)N(C)C(C)(C)C3)ncc2Cl)c(=O)n1C` [Compound I-250], in that order: 16.3 nM, 0.0902 µM and 0.0822 µM.
As to `Cn1cnc2c(c(-c3cc(Cl)c(O)c(C(N)=O)c3)cn2CC(=O)Nc2cc(N3CCOC(C(F)(F)F)C3)ncc2Cl)c1=O` (stereo not drawn) [Compound I-256], the equilibrium dissociation constant (Kd) in test [1] was determined as 211 nM. In addition, the IC50 in test [2] (setting [6]) amounted to 0.274 µM. The EC50 in test [3] (setting [7]) stood at 0.509 µM.
Turning to `Cn1cnc2c(c(-c3cc(Cl)c(O)c(C(N)=O)c3)cn2CC(=O)Nc2cc(N3CCOC(C(F)(F)F)C3)ncc2Cl)c1=O` (stereo not drawn) [Compound I-258], binding in test [1] was characterised by a dissociation constant (Kd) of 100 nM. In addition, the IC50 in test [2] (setting [6]) came to 0.491 µM. Further, the EC50 in test [3] (setting [7]) is 0.549 µM.
Consider `C[C@@H]1COC[C@@H](C)N1c1cc(NC(=O)Cn2cc(-c3cc(Cl)c(O)c(C(N)=O)c3)c3c(=O)n(C)cnc32)c(Cl)cn1` [Compound I-259], for which binding in test [1] was put at a Kd of 38.5 nM. Besides, the IC50 in test [2] (setting [4]) turned out to be 0.652 µM. Further, the half-maximal effective concentration (EC50) in test [3] (setting [5]) came out at 0.214 µM.
In test [1], `C[C@H]1CN(C)CCN1c1cc(NC(=O)Cn2cc(-c3cc(Cl)c(O)c(C(N)=O)c3)c3c(=O)n(C)c(-c4ccccc4)nc32)c(Cl)cn1` [Compound I-260, (S)-3-chloro-5-(7-(2-((5-chloro-2-(2,4-dimethylpiperazin-1-yl)pyridin-4-yl)amino)-2-oxoethyl)-3-methyl-4-oxo-2-phenyl-4,7-dihydro-3H-pyrrolo[2,3-d]pyrimidin-5-yl)-2-hydroxybenzamide] yielded a Kd of 58.8 nM. Besides, the IC50 in test [2] (setting [4]) was 0.238 µM. Moreover, the EC50 in test [3] (setting [5]) turned out to be 10 µM.
